Holding throughout (assay type): biochemical
For one experiment, the target named is T1, CDK2/CyclinA2 (Homo sapiens, UniProt P24941).
T1 construct: Wild-type, full length CDK2 in complex with wildtype, full length CyclinA2: Carna Cat #04-103; purchased Carna 04-103
As to the kind of experiment: CDK2/CyclinA2 ChEF Assay (AQT, Table C). The settings on record: 10xKm; for Ki: AQT ChEF, read-out: CDK2/CCNA2 AQT10xKm Ki: Average Ki; for CDK2/CCNA2 AQT10xKm Ki: CDK2/A2 Selectivity over CDK1/B1 / CDK2/CCNA2 AQT10xKm Ki: CDK2/A2 selectivity over CDK4/D1 / CDK2/CCNA2 AQT10xKm Ki: CDK2/A2 selectivity over CDK6/D3 / CDK2/CCNA2 AQT10xKm Ki: CDK2/A2 Selectivity over CDK9: AQT. The procedure:
(§1) 16 nL of 1000× compound in 100% DMSO is added to a 384-well low volume, black assay plate. 12 μL of 1.3×CDK2/CyclinA2 (Wild-type, full length CDK2 in complex with wildtype, full length CyclinA2: Carna Cat #04-103 diluted in assay buffer (54 mM Hepes, 0.012% Brij-35, 10 mM MgCl2, 0.55 mM EGTA, 1% Glycerol, 0.02% BSA, and 1.2 mM DTT) is added to the plates on top of the compound and pre-incubated for 30 minutes at room temperature. Following the incubation, 4 uL of 4×Sox-chromophore (CSox) labeled peptide substrate (AQT0297, AssayQuant) & ATP diluted in assay buffer is added to the plate to initiate the reaction. The assay is incubated at room temperature for 90 min after initiation. The CSox peptide substrate is phosphorylated by CDK2/A2 upon ATP hydrolysis.
(§2) The fluorescent intensity measurement of the assay plate is read on a microplate reader once the assay is initiated and again at the completion of the assay. Phosphorylation of the CSox-based peptide substrate sensor results in an immediate increase in fluorescence. These raw fluorescence intensity values are normalized to calculate percent inhibition, which are fit to a four-parameter logistic curve and IC50 values are calculated. IC50 values are converted to Ki using substrate, KM^app values, and the Cheng-Prusoff equation.

A further experiment has as its target T2, CDK1/CyclinB1 (Homo sapiens, UniProt P06493).
T2 construct: Wild-type, full length CDK1 in complex with wildtype, full length CyclinB1: Carna Cat #04-102; purchased Carna 04-102
Kind of experiment: CDK1/CyclinB1 ChEF Assay (AQT, Table C). To be noted: 10xKm, read-out: CDK1/CCNB1 AQT AQT10xKm Ki: Average Ki. How it is done:
as §1, with “1.3×CDK1/CyclinB1” for “1.3×CDK2/CyclinA2”, “CDK1” for “CDK2”, “CyclinB1:” for “CyclinA2:”, “#04-102)” for “#04-103”, “120” for “90”, “CDK1/B1” for “CDK2/A2”
as §2

A further experiment concerns the target T3, CDK4/CyclinD1 (Homo sapiens, UniProt P11802).
T3 construct: Wild-type, full length CDK4 in complex with wildtype, CyclinD1: ThermoFisher Cat #PR8064A; purchased ThermoFisher PR8064A
As to the kind of experiment: CDK4/CyclinD1 ChEF Assay (AQT, Table C). To be noted: read-out: CDK4/CCND1 AQT Ki: Average Ki. How it is done:
16 nL of 1000× compound in 100% DMSO is added to a 384-well low volume, black assay plate. 12 μL of 1.3×CDK4/CyclinD1 (Wild-type, full length CDK4 in complex with wildtype, CyclinD1: ThermoFisher Cat #PR8064A) diluted in assay buffer (54 mM Hepes, 0.012% Brij-35, 10 mM MgCl2, 0.55 mM EGTA, 1% Glycerol, 0.02% BSA, and 1.2 mM DTT) is added to the plates on top of the compound and pre-incubated for 30 minutes at room temperature. Following the incubation, 4 uL of 4×Sox-chromophore (CSox) labeled peptide substrate (AQT0258, AssayQuant) & ATP diluted in assay buffer is added to the plate to initiate the reaction. The assay is incubated at room temperature for 150 min after initiation. The CSox peptide substrate is phosphorylated by CDK4/D1 upon ATP hydrolysis.
The fluorescent intensity measurement of the assay plate is read on a microplate reader once the assay is initiated and again at the completion of the assay. Phosphorylation of the CSox-based peptide substrate sensor results in an immediate increase in fluorescence. These raw fluorescence intensity values are normalized to calculate percent inhibition, which are fit to a four-parameter logistic curve and IC50 values are calculated. IC50 values are converted to Ki using substrate, KM^ap values, and the Cheng-Prusoff equation.

Another experiment deals with T4, CDK6/CyclinD3 (Homo sapiens, UniProt Q00534).
T4 construct: Wild-type, full length CDK6 in complex with wildtype, full length CyclinD3: Carna Cat #04-107; purchased Carna 04-107
As to the kind of experiment: CDK6/CyclinD3 ChEF Assay (AQT, Table C). To be noted: read-out: CDK6/CCND3 AQT Ki: Average Ki. How it is done:
16 nL of 1000× compound in 100% DMSO is added to a 384-well low volume, black assay plate. 12 μL of 1.3×CDK6/CyclinD3 (Wild-type, full length CDK6 in complex with wildtype, full length CyclinD3: Carna Cat #04-107) diluted in assay buffer (54 mM Hepes, 0.012% Brij-35, 10 mM MgCl2, 0.55 mM EGTA, 1% Glycerol, 0.02% BSA, and 1.2 mM DTT) is added to the plates on top of the compound and pre-incubated for 30 minutes at room temperature. Following the incubation, 4 uL of 4×Sox-chromophore (CSox) labeled peptide substrate (AQT0258, AssayQuant) & ATP diluted in assay buffer is added to the plate to initiate the reaction. The assay is incubated at room temperature for 300 min after initiation. The CSox peptide substrate is phosphorylated by CDK6/D3 upon ATP hydrolysis.
as §2

T2 sequence (P06493 whole entry): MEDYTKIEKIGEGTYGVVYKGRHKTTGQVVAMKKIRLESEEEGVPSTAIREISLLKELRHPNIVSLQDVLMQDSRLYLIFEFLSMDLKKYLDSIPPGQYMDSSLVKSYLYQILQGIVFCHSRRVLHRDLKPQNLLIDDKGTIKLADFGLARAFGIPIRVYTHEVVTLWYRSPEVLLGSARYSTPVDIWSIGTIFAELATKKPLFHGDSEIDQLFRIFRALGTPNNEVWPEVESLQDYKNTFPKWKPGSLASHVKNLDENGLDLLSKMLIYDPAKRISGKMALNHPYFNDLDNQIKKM
T2 sequence (P14635 whole entry partner): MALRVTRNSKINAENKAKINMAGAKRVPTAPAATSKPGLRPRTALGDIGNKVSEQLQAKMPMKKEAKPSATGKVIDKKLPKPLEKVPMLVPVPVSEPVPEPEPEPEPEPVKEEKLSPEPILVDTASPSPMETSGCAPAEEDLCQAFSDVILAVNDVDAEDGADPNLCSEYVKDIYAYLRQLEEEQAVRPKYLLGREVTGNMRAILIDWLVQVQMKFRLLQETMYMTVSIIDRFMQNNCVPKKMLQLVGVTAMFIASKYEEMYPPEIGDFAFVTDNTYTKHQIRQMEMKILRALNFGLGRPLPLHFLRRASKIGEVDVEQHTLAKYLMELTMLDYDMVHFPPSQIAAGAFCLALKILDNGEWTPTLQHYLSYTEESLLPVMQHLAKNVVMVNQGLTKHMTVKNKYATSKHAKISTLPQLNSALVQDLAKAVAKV
T3 sequence (P11802 whole entry): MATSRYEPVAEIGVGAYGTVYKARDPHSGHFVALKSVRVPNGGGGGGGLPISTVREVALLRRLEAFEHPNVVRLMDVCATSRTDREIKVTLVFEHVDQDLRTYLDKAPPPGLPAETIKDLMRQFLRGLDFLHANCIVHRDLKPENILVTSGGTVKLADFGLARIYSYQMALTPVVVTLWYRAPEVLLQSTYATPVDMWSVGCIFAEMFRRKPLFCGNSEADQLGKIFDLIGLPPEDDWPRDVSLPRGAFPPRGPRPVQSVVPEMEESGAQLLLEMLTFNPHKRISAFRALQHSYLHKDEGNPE
T3 sequence (P24385 whole entry partner): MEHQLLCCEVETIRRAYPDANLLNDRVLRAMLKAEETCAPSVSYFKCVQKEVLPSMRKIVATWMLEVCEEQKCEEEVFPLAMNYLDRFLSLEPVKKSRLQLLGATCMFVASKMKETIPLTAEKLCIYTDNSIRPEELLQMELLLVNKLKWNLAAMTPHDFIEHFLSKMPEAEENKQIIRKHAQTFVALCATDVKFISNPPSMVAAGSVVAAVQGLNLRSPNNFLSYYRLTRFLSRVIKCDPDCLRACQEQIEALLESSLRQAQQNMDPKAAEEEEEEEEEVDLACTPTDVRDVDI
T4 sequence (Q00534 whole entry): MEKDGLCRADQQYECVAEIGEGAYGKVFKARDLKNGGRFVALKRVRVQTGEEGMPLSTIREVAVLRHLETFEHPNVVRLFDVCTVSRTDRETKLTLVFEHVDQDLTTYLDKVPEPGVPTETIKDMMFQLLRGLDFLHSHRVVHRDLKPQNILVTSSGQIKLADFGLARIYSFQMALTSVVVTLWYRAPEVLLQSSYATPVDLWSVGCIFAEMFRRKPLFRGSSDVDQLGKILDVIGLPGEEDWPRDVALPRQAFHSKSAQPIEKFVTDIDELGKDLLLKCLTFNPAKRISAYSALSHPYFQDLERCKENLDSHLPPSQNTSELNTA
T4 sequence (P30281 whole entry partner): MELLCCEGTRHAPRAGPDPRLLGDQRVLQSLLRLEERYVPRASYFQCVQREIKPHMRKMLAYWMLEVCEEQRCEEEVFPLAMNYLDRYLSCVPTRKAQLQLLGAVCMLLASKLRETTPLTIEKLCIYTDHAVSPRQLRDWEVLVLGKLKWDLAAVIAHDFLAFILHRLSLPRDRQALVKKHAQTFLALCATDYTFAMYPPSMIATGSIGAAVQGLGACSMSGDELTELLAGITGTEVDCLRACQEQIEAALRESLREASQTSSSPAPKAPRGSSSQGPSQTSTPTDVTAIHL

As to `NS(=O)(=O)c1ccc2cc1OCCCCCNC(=O)O[C@@H]1CC[C@@H](C1)c1cnc(nc1)N2` (stereo in doubt) [Compound 105, rel-(2S,5R)-7-oxo-6,14-dioxa-8,20,22,25-tetraazatetracyclo[19.2.2.1^{2,5}.1^{15,19}]heptacosa-1(23),15,17,19(26),21,24-hexaene-16-sulfonamide], at CDK2/CyclinA2, the Ki was less than 0.001 µM, the “CDK2/CCNA2 AQT10xKm Ki: CDK2/A2 Selectivity over CDK1/B1” value is “A (A>10)”, the “CDK2/CCNA2 AQT10xKm Ki: CDK2/A2 selectivity over CDK4/D1” value was “A (A>10)” and the “CDK2/CCNA2 AQT10xKm Ki: CDK2/A2 selectivity over CDK6/D3” value is reported as “A (A>10)”. Further, the “CDK2/CCNA2 AQT10xKm Ki: CDK2/A2 Selectivity over CDK9” value on CDK2/CyclinA2 is listed as “A (A>10)”. Further, the Ki at CDK1/CyclinB1 was 0.001 to 0.025 µM. Further, the Ki at CDK4/CyclinD1 was not below 0.1 µM. Besides, the Ki at CDK6/CyclinD3 is not below 0.1 µM.

`O=C1NCCCCCCNS(=O)(=O)c2ccc(c(F)c2)Nc2cc([nH]n2)[C@H]2CC[C@H](C2)O1` [Compound 91, (1^1S,1^3R,Z)-4^2-fluoro-2^1H-15-oxa-5-thia-3,6,13-triaza-2(5,3)-pyrazola-4(1,4)-benzena-1(1,3)-cyclopentanacyclopentadecaphan-14-one 5,5-dioxide]: on CDK2/CyclinA2, the Ki was less than 0.001 µM, the “CDK2/CCNA2 AQT10xKm Ki: CDK2/A2 Selectivity over CDK1/B1” value is “A (A>10)”, the “CDK2/CCNA2 AQT10xKm Ki: CDK2/A2 selectivity over CDK4/D1” value is reported as “A (A>10)” and the “CDK2/CCNA2 AQT10xKm Ki: CDK2/A2 selectivity over CDK6/D3” value was “A (A>10)”. Besides, the “CDK2/CCNA2 AQT10xKm Ki: CDK2/A2 Selectivity over CDK9” value on CDK2/CyclinA2 is “A (A>10)”. Besides, the Ki on CDK1/CyclinB1 fell in the range of 0.001 to 0.025 µM. The Ki on CDK4/CyclinD1 was not below 0.1 µM. At CDK6/CyclinD3, the Ki was not below 0.1 µM.

Turning to `O=C1NCCCCCCn2cc(cn2)S(=O)(=O)N2CCC(CC2)Nc2cc([nH]n2)[C@H]2CC[C@H](C2)O1` [Compound 97, (1^1S,1^3R,2^4Z,6^4E)-2^1H,6^1H-15-oxa-5-thia-3,13-diaza-4(4,1)-piperidina-2(5,3),6(4,1)-dipyrazola-1(1,3)-cyclopentanacyclopentadecaphan-14-one 5,5-dioxide], on CDK2/CyclinA2, the Ki is less than 0.001 µM, the “CDK2/CCNA2 AQT10xKm Ki: CDK2/A2 Selectivity over CDK1/B1” value was “A (A>10)” and the “CDK2/CCNA2 AQT10xKm Ki: CDK2/A2 Selectivity over CDK9” value was “A (A>10)”. In addition, the Ki on CDK1/CyclinB1 fell in the range of 0.001 to 0.025 µM.
